Assay [1] has as its system P. falciparum D6 (CQ susceptible (CQS) strain). In words: Malaria SYBR Green Fluorescence Assay, D6 strain. In kind it is cell-based. The note with it: Plasmodium falciparum; CQ susceptible African D6 clone; read-out: In Vitro Antimalarial Activity (P. falciparum, IC50, nM) D6.
Assay [2] has as its system P. falciparum TM91C235 (Thailand, multidrug-resistant (MDR) strain). In words: Malaria SYBR Green Fluorescence Assay, TM91C235 strain. The class given is cell-based. The note with it: Plasmodium falciparum, read-out: In Vitro Antimalarial Activity (P. falciparum, IC50, nM) C235.
For a further assay, the system named is P. berghei (ANKA). In words: Modified Thompson test, P. berghei mouse efficacy. The class given is in vivo, Plasmodium berghei. The procedure:
In a separate host toxicity study, benzothiophene 25 was subjected to in vivo toxicity evaluation. […]
The P. berghei (ANKA) mouse efficacy tests were conducted using a modified version of the Thompson test. Groups of five mice were inoculated intraperitoneally with erythrocytes infected with P. berghei on day 0. Drugs were suspended in 0.5% hydroxyethylcellulose-0.1% Tween 80 and administered orally once a day beginning on day 3 post infection. […] Cure was defined as survival (with no parasitemia) until day 31 post-treatment. Parasitemia was determined by thin-blood Giemsa-stained smears prepared from mice tail blood of each animal on days 0, 3, 6, 10, 13, 17, 20, 24, 27, and 31 (postinfection). The slides were examined under a light microscope.

Assay [3] deals with P. falciparum W2 (CQ resistant (CQR) strain). Description: microbe, parasite or virus in culture. In kind it is cell-based, Plasmodium falciparum. The settings on record: for IC50: Plasmodium falciparum, W2, read-out: In Vitro Antimalarial Activity (P. falciparum, IC50, nM) W2; for RI W2/D6 (resistance index): IC50 W2 / IC50 D6.
Assay [4] relates to HepG2 (hepatocellular carcinoma) cell line. In words: Compound toxicity in HepG2 cell line. The class given is cell-based, human. The note with it: for IC50: Homo sapiens, HepG2, hepatocellular carcinoma cells; for SI HepG2/D6 (selectivity index): IC50 HepG2 / IC50 D6. The method, then:
To investigate possible toxicity issues, the synthesized compounds were evaluated in vitro against a human hepatoma cell line (HepG2).
Synthesized aminoquinolines were screened in vitro against P. falciparum strains: CQ and MFQ susceptible strain D6 (clone of Sierra Leone/UNC isolate), CQ resistant but MFQ susceptible strain W2 (clone of Indochina isolate), and CQ and MFQ resistant strain TM91C235 (clone of South East Asian isolate) using the Malaria SYBR Green Fluorescence Assay. Full method details are given in Supplementary Materials I. Assessment of compound toxicity in a HepG2 (hepatocellular carcinoma) cell line followed the protocol described in Ref. [40].

Where [5] appears, read: infected mice, 160 mg/kg/day p.o., days 3–5 postinfection.

For orientation: IC50 means the midpoint of a concentration-inhibition curve.

Take `CCN(CC)CCCC(C)Nc1ccnc2cc(Cl)ccc12` (centres unmarked) [CQ, chloroquine, reference compound]: the IC50 in assay [1] is 15 nM; in assay [2] it was 206 nM; in assay [3], 595 nM. Also, the “Parasitemia D6-D31” value in the assay on P. berghei (ANKA) (160 mg/kg/day p.o. days 3–5, days 6–31) is 5 mice negative. Further, the “Mean Survival Time (MST, Days)” value in the assay on P. berghei (ANKA) (setting [5]) was over 31 days. Also, in the assay with P. berghei (ANKA) (setting [5]), the “Mice Alive on Day 31” value is reported as 5/5.

For the compound `c1ccc2sc(CNCCCNc3ccnc4ccccc34)cc2c1` [Compound 8], the IC50 was 20 nM in assay [1], 8.87 µM in assay [4], 107 nM in assay [2] and 104 nM in assay [3]. In addition, the “SI HepG2/D6 (selectivity index)” value in assay [4] was determined as 440. The “RI W2/D6 (resistance index)” value in assay [3] was 5.2.

For the compound `c1ccc2sc(CNCCCCNc3ccnc4ccccc34)cc2c1` [Compound 9], the half-inhibitory concentration (IC50) in assay [1] amounted to 14 nM; in assay [4], 4.87 µM; in assay [2], 205 nM; in assay [3], 191 nM. Also, the “SI HepG2/D6 (selectivity index)” value in assay [4] came to 339. Also, the “RI W2/D6 (resistance index)” value in assay [3] is on record as 13.6.

Take `Fc1ccc2c(CNCCCNc3ccnc4ccccc34)csc2c1` [Compound 12]: the IC50 in assay [1] came to 21 nM; in assay [4] it was 4.48 µM; in assay [2], 191 nM; in assay [3], 185 nM. Moreover, the “SI HepG2/D6 (selectivity index)” value in assay [4] is 211. Moreover, in assay [3], the “RI W2/D6 (resistance index)” value worked out at 8.8.

Regarding `Fc1ccc2scc(CNCCCCNc3ccnc4ccccc34)c2c1` [Compound 13], the IC50 in assay [1] is 16 nM; in assay [4], 2.73 µM; in assay [2], 177 nM; in assay [3], 201 nM. Further, the “SI HepG2/D6 (selectivity index)” value in assay [4] is reported as 172. In addition, the “RI W2/D6 (resistance index)” value in assay [3] came to 12.6.

With `Fc1ccc2scc(-c3ccc(CNCCCNc4ccnc5ccccc45)cc3)c2c1` [Compound 23], the IC50 is 28 nM in assay [1], 3.83 µM in assay [4], 111 nM in assay [2] and 144 nM in assay [3]. For the same compound, the “SI HepG2/D6 (selectivity index)” value in assay [4] was 136. The “RI W2/D6 (resistance index)” value in assay [3] is reported as 5.1.

For `Fc1ccc2scc(-c3ccc(CNCCCCCCNc4ccnc5ccccc45)cc3)c2c1` [Compound 24], the IC50 amounted to 60 nM in assay [1], 2.23 µM in assay [4], 242 nM in assay [2] and 277 nM in assay [3]. The “SI HepG2/D6 (selectivity index)” value in assay [4] is given as 37. For the same compound, the “RI W2/D6 (resistance index)” value in assay [3] was determined as 4.6.

As for `CC(CCCNCc1ccc(-c2csc3ccc(F)cc23)cc1)Nc1ccnc2ccccc12` (centres unmarked) [Compound 26], the half-inhibitory concentration (IC50) in assay [1] was found to be 36 nM; in assay [4], 2.35 µM; in assay [2] it was 45 nM; in assay [3], 55 nM. The “SI HepG2/D6 (selectivity index)” value in assay [4] came to 65. In assay [3], the “RI W2/D6 (resistance index)” value came out at 1.5.

Take `CC(CCCN(C)Cc1ccc(-c2csc3ccc(F)cc23)cc1)Nc1ccnc2ccccc12` (centres unmarked) [Compound 27]: the IC50 in assay [1] worked out at 29 nM; in assay [4], 5 µM; in assay [2], 126 nM; in assay [3] it was 126 nM. In assay [4], the “SI HepG2/D6 (selectivity index)” value was 173. Also, in assay [3], the “RI W2/D6 (resistance index)” value stood at 4.3.

For `N#Cc1ccc2scc(-c3ccc(CNCCCCNc4ccnc5ccccc45)cc3)c2c1` [Compound 28], the IC50 in assay [1] was determined as 6 nM; in assay [4], 2.58 µM; in assay [2], 129 nM; in assay [3], 188 nM. Besides, the “SI HepG2/D6 (selectivity index)” value in assay [4] turned out to be 401. The “RI W2/D6 (resistance index)” value in assay [3] came to 31.3.

On to `CC(CCCNCc1ccc(-c2csc3ccc(C#N)cc23)cc1)Nc1ccnc2ccccc12` (centres unmarked) [Compound 29], for which the IC50 was 13 nM in assay [1], 2.41 µM in assay [4], 46 nM in assay [2] and 44 nM in assay [3]. Besides, the “SI HepG2/D6 (selectivity index)” value in assay [4] is listed as 192. In assay [3], the “RI W2/D6 (resistance index)” value was found to be 3.4.

As for `N#Cc1ccc2scc(-c3ccc(CNCCCCCCNc4ccnc5ccccc45)cc3)c2c1` [Compound 30], the IC50 worked out at 12 nM in assay [1], 1.98 µM in assay [4], 51 nM in assay [2] and 81 nM in assay [3]. For the same compound, the “SI HepG2/D6 (selectivity index)” value in assay [4] is 162. For the same compound, in assay [3], the “RI W2/D6 (resistance index)” value was 6.8.

On to `N#Cc1ccc2c(-c3ccc(CNCCCCNc4ccnc5ccccc45)cc3)csc2c1` [Compound 31], for which the IC50 worked out at 13 nM in assay [1], 3.58 µM in assay [4], 93 nM in assay [2] and 197 nM in assay [3]. In assay [4], the “SI HepG2/D6 (selectivity index)” value is recorded as 276. Further, the “RI W2/D6 (resistance index)” value in assay [3] is 15.2.

Take `N#Cc1ccc2c(-c3ccc(CNCCCCCCNc4ccnc5ccccc45)cc3)csc2c1` [Compound 32]: the IC50 is 55 nM in assay [1], 2.05 µM in assay [4], 29 nM in assay [2] and 102 nM in assay [3]. Also, the “SI HepG2/D6 (selectivity index)” value in assay [4] is on record as 37. The “RI W2/D6 (resistance index)” value in assay [3] was determined as 1.8.

Consider `N#Cc1ccc(-c2ccc(-c3ccc(CNCCNc4ccnc5cc(Cl)ccc45)cc3)s2)cc1` [Compound 37], for which the concentration for half-maximal inhibition (IC50) was 49 nM in assay [1], over 30.6 µM in assay [4], 60 nM in assay [2] and 26 nM in assay [3]. Besides, in assay [3], the “RI W2/D6 (resistance index)” value was 0.5.

In the case of `N#Cc1ccc(-c2ccc(-c3ccc(CNCCCNc4ccnc5cc(Cl)ccc45)cc3)s2)cc1` [Compound 38], the IC50 worked out at 84 nM in assay [1], 2.56 µM in assay [4], 43 nM in assay [2] and 20 nM in assay [3]. Also, the “SI HepG2/D6 (selectivity index)” value in assay [4] was 30. Besides, the “RI W2/D6 (resistance index)” value in assay [3] was 0.2.

As to `N#Cc1ccc(-c2ccc(-c3ccc(CNCCCCNc4ccnc5cc(Cl)ccc45)cc3)s2)cc1` [Compound 39], the half-maximal inhibitory concentration (IC50) is 59 nM in assay [1], over 5.79 µM in assay [4], 52 nM in assay [2] and 46 nM in assay [3]. The “RI W2/D6 (resistance index)” value in assay [3] was found to be 0.8.

`N#Cc1ccc(-c2ccc(-c3ccc(CNCCCCCNc4ccnc5cc(Cl)ccc45)cc3)s2)cc1` [Compound 40]: the IC50 is 80 nM in assay [1], 6.7 µM in assay [4], 54 nM in assay [2] and 41 nM in assay [3]. Moreover, the “SI HepG2/D6 (selectivity index)” value in assay [4] was determined as 84. Moreover, the “RI W2/D6 (resistance index)” value in assay [3] came to 0.5.

Take `N#Cc1ccc(-c2ccc(-c3ccc(CNCCCCCCNc4ccnc5cc(Cl)ccc45)cc3)s2)cc1` [Compound 41]: the IC50 in assay [1] is 27 nM; in assay [4], 2.42 µM; in assay [2] it was 20 nM; in assay [3] it was 13 nM. Further, the “SI HepG2/D6 (selectivity index)” value in assay [4] is recorded as 89. Further, the “RI W2/D6 (resistance index)” value in assay [3] amounted to 0.5.

As to `N#Cc1ccc(-c2ccc(-c3ccc(CNCCCCNc4ccnc5ccccc45)cc3)s2)cc1` [Compound 43], the half-maximal inhibitory concentration (IC50) is 4 nM in assay [1], 8.15 µM in assay [4], 34 nM in assay [2] and 106 nM in assay [3]. The “SI HepG2/D6 (selectivity index)” value in assay [4] is 2038. The “RI W2/D6 (resistance index)” value in assay [3] was found to be 26.

Regarding `N#Cc1ccc(-c2ccc(-c3ccc(CNCCCCCCNc4ccnc5ccccc45)cc3)s2)cc1` [Compound 44], the IC50 in assay [1] came to 101 nM; in assay [4], 4.08 µM; in assay [2], 54 nM; in assay [3], 74 nM. Further, in assay [4], the “SI HepG2/D6 (selectivity index)” value is given as 40. Moreover, in assay [3], the “RI W2/D6 (resistance index)” value stood at 0.7.

For the compound `C#Cc1ccc(-c2ccc(-c3ccc(CNCCCCCCCCNc4ccnc5ccccc45)cc3)s2)cc1` [Compound 52], the IC50 in assay [1] was determined as 177 nM; in assay [4] it was 9.23 µM; in assay [2], 274 nM; in assay [3] it was 259 nM. For the same compound, in assay [4], the “SI HepG2/D6 (selectivity index)” value is given as 52. Moreover, in assay [3], the “RI W2/D6 (resistance index)” value amounted to 1.5.

For the compound `OC(c1cc(C(F)(F)F)nc2c(C(F)(F)F)cccc12)C1CCCCN1` (centres unmarked) [MFQ, mefloquine, reference compound], the half-inhibitory concentration (IC50) in assay [1] amounted to 23 nM; in assay [2], 55 nM; in assay [3], 7 nM. The “RI W2/D6 (resistance index)” value in assay [3] came out at 0.3.

The values are drawn from paper PMC6155332, “Antimalarials with Benzothiophene Moieties as Aminoquinoline Partners” (Molecules : A Journal of Synthetic Chemistry and Natural …, 2017).
